Data: paper PMC12459020, “Chemical Probes that Target a Dissociative LuxR-Type Quorum Sensing Receptor in Gram-Negative Bacteria” (ACS Chemical Biology, 2025)
Entries after “also recorded” stand apart in the source; their conditions may differ. Like-named read-outs stand apart in the source and are kept apart here.

Key:
EsaR [1] = target: T1, EsaR (Pantoea stewartii subsp. stewartii, UniProt P54293); test: cell-based; details: for activation at 100 µM / inhibition at 100 µM: 3.5 h; for activation at 100 µM: read-out: EsaR-activated (pesaS) [%] agonism; for inhibition at 100 µM: read-out: EsaR-activated (pesaS) antagonism; for EsaR agonism, in words / EsaR antagonism, in words: E. coli EsaR reporters; for EsaR agonism, in words: primary screen at 100 μM; for EsaR antagonism, in words: competed against OHHL at approx. EC50; for EsaR agonism at 100 μM (bound stated in text): E. coli EsaR reporter
T1 construct: expressed in transfected cells; host or cells: E. coli JLD271 (K12 ΔsdiA), arabinose-induced pJN105-esaR
Source text: (§1) EsaR transcriptional activation and repression were examined using E. coli and P. stewartii reporters (strains and plasmids listed in Table S1; see Methods section for assay details). […] We constructed reporters in E. coli based on previously reported EsaR reporters (Table S1). Each strain contained an EsaR expression plasmid (pJN105-esaR) and a reporter plasmid with either an EsaR-activated promoter (pesaS) or an EsaR-repressed promoter (pesaR) upstream of luxABCDE or GFP.
(§2) Gibson assembly was used to create all constructs. Plasmid pJN105-esaR was created by amplifying esaR from pAC-esaR and inserting it into pJN105. pesaSlux was created by inserting pesaS, amplified from pPesaR-AC:gfp, into the pCS-pesaRlux backbone. The pesaR promoter was amplified from pCS-pesaRlux and inserted into the pPesaR-AC:gfp backbone to create pesaR:GFP. P. stewartii reporter strains were created by transforming pesaR:GFP or pPesaR-AC:gfp into ESN51 by conjugation using E. coli S17 λpir as the donor strain. See SI for details of E. coli ExpR2 reporter construction.
(§3) Overnight cultures were diluted 1:10 in LB medium with appropriate antibiotics and grown at 37 °C (200 rpm) to an OD600 of 0.22–0.27 before induction with 4 mg mL^–1 arabinose. OD600 was measured by placing 200 μL of culture into a 96-well plate and reading optical density using the BioTek Synergy 2 plate reader. Assays were performed in technical triplicate in clear-bottom, white and clear-bottom, black 96-well microtiter plates (Corning Costar 3903 and 3904) for luminescence and fluorescence reporters, respectively. Compounds were dissolved in DMSO, and 2 μL of this stock, or DMSO as a negative control, was added to each well prior to adding 198 μL of induced culture. Plates were incubated at 37 °C (200 rpm) for 3.5 h. Each well was mixed by pipetting before reading OD600 and either luminescence or fluorescence. Single-point screens were performed with one or two biological replicates, and all dose–response curves were performed in biological triplicate. EC50 values were calculated based on a nonlinear regression of log(concentration) vs response (three parameters) using GraphPad Prism 9 software.

EsaR [2] = target: T1, EsaR; test: cell-based; details: for activation at 100 µM / inhibition at 100 µM: 3.5 h; for activation at 100 µM: read-out: EsaR-repressed (pesaR) [%] agonism; for inhibition at 100 µM: read-out: EsaR-repressed (pesaR) antagonism
Source text: as §1, §2, §3

ExpR1 = details: cited from earlier work; for ExpR1 [%] (agonism, activation): compounds at 200 μM, cellulase activity in P. versatile AC5117, ref Palmer et al., 2011 (main ref 44, SI ref 6); for ExpR1 antagonism: 5 µM compound against 5 µM OHHL, negative values indicate potential activators, ref 6 (SI; Palmer et al., 2011)
ExpR2 = details: cited from earlier work; for ExpR2 [%] (agonism, percent activation): compounds at 200 μM, cellulase activity in P. versatile AC5099, ref Palmer et al., 2011 (main ref 44, SI ref 6); for ExpR2 antagonism (percent inhibition): 5 µM compound against 5 µM OHHL, negative values indicate potential activators
LuxR = details: cited from earlier work; for LuxR [%] (agonism, activation): compounds at 200 μM, luminescence in V. fischeri ES114 (ΔluxI), ref Palmer et al., 2011 (main ref 44, SI ref 6); for LuxR antagonism: 5 µM compound against 5 µM OHHL, negative values indicate potential activators, ref 6 (SI; Palmer et al., 2011)
[3] = ref 6 (SI; Palmer et al., 2011)

T1 sequence (P54293 whole entry): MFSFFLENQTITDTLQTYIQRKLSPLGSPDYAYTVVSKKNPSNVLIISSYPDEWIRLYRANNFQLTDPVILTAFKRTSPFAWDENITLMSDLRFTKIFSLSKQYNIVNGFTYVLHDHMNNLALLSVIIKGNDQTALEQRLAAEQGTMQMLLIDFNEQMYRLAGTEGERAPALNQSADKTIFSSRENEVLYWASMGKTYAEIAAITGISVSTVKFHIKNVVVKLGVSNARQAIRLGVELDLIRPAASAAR

SMILES | ExpR1 [%] (agonism, activation) (ExpR1) | activation at 100 µM (EsaR [1]) | ExpR2 [%] (agonism, percent activation) (ExpR2) | LuxR [%] (agonism, activation) (LuxR) | activation at 100 µM (EsaR [2]) | ExpR1 antagonism (ExpR1) | inhibition at 100 µM (EsaR [1]) | ExpR2 antagonism (percent inhibition) (ExpR2; [3]) | LuxR antagonism (LuxR) | inhibition at 100 µM (EsaR [2]) | other results
CCCS(=O)(=O)N[C@H]1CCOC1=O [A8] |  |  |  |  |  |  |  |  |  |  | EC50 (EsaR [1]): ≥ 66 µM; EC50 (EsaR [2]): ≥ 71 µM
CCCCCS(=O)(=O)N[C@H]1CCOC1=O [A10] |  |  |  |  |  |  |  |  |  |  | EC50 (EsaR [1]): 17 µM; fold less potent than hexanoyl HL in EsaR (EsaR [1]; E. coli EsaR reporter EC50 values): about 3 fold; EC50 (EsaR [2]): 17 µM
O=C(N[C@H]1CCOC1=O)c1ccc(Br)cc1 [B6] | 2% | -4% | 7% | 2% | 11% |  |  |  |  |  | 
O=C(N[C@H]1CCOC1=O)c1ccccc1 [B8] | 0% | 2% | 6% | 2% | 6% | 37% | -4% | 23% | 34% | -4% | 
O=C(CCc1ccccc1)N[C@H]1CCOC1=O [B9] | 4% | 23% | 12% | 3% | 6% | 48% | -24% | 37% | 44% | -10% | 
O=C(/C=C/c1ccccc1)N[C@H]1CCOC1=O [B10] | 4% | 12% | 18% | 3% | -2% | 57% | -6% | 49% | 48% | 17% | 
CCCC(=O)N[C@H]1CCOC1=O [BHL, reference compound] | 0% | 26% | 17% | 0% | 6% | 48% | -22% | 19% | 43% | -46% | 
O=C(Cc1ccccc1)N[C@H]1CCOC1=O [C1] | 6% | 17% | 21% | 3% | 7% | 4% | -13% | 11% | 14% | -61% | 
O=C(Cc1ccc(F)cc1)N[C@H]1CCOC1=O [C2] | 4% | 4% | 14% | 2% | -2% | 64% | -14% | 23% | 59% | -50% | 
O=C(Cc1ccccc1F)N[C@H]1CCOC1=O [C4] | 8% | -1% | 24% | 2% | -3% | 44% | -9% | 27% | 49% | 15% | 
O=C(Cc1ccc(Cl)cc1)N[C@H]1CCOC1=O [C5, 4-Cl PHL] | 5% | -1% | 29% | 3% | 3% | 78% | -3% | 48% | 75% | 2% | EsaR agonism, in words (EsaR [1]): nearly inactive
O=C(Cc1cccc(Cl)c1)N[C@H]1CCOC1=O [C6] | 49% | 49% | 81% | 61% | 29% | 63% | -40% | 54% | 65% | -58% | EC50 (EsaR [1]): ≥ 125 µM; EC50 (EsaR [2]): ≥ 216 µM
O=C(Cc1ccccc1Cl)N[C@H]1CCOC1=O [C7] | 9% | 10% | 28% | 6% | 5% | 57% | 1% | 41% | 53% | -26% | 
O=C(Cc1cccc(Br)c1)N[C@H]1CCOC1=O [C8] | 63% | 55% | 97% | 70% | 30% | 73% | -43% | 59% | 68% | -65% | 
CCCCCCCCCC(=O)NC1CCCC1 [C10-CPA, reference compound] |  |  |  |  |  |  |  |  |  |  | EsaR antagonism, in words (EsaR [1]): did not show antagonism; also recorded: None of these compounds antagonized EsaR
O=C(Cc1ccc(I)cc1)N[C@H]1CCOC1=O [C10] | 6% | 7% | 19% |  | 0.4% | 73% | -5% | 68% |  | 25% | IC50 (ExpR2; previously reported phenotypic reporter data, ref 6 (SI; Palmer et al., 2011)): 0.9 µM
O=C(CCc1cccc([N+](=O)[O-])c1)N[C@H]1CCOC1=O [E38] |  |  |  |  |  |  |  |  |  |  | EC50 (EsaR [1]): ≥ 64 µM
O=C(Cc1cccc([N+](=O)[O-])c1)NC1CCCC1 [F18] |  |  |  |  |  |  |  |  |  |  | EsaR antagonism, in words (EsaR [1]): None of these compounds antagonized EsaR
Cc1ccc(CS(=O)(=O)N[C@H]2CCOC2=O)cc1 [GAF 13] |  |  |  |  |  |  |  |  |  |  | EsaR agonism at 100 μM (bound stated in text) (EsaR [1]): ≤ 50%
O=C1OCC[C@@H]1NS(=O)(=O)Cc1cccc(Cl)c1 [GAF 33] |  |  |  |  |  |  |  |  |  |  | EsaR agonism at 100 μM (bound stated in text) (EsaR [1]): ≤ 50%
O=C1OCC[C@@H]1NS(=O)(=O)Cc1cccc(Br)c1 [GAF 41] |  |  |  |  |  |  |  |  |  |  | EsaR agonism at 100 μM (bound stated in text) (EsaR [1]): ≤ 50%
O=C1OCC[C@@H]1NS(=O)(=O)c1ccc(Cl)c(Cl)c1Cl [GAF 45] |  |  |  |  |  |  |  |  |  |  | EC50 (EsaR [1]): 4.7 µM; EC50 (EsaR [2]): 4.9 µM
O=C1OCC[C@@H]1NS(=O)(=O)c1cc(Cl)cc(Cl)c1 [GAF 50] |  |  |  |  |  |  |  |  |  |  | EC50 (EsaR [1]): 24 µM; EC50 (EsaR [2]): 24 µM
CC(=O)CC(=O)N[C@H]1CCOC1=O [OBHL, reference compound] |  |  |  |  |  |  |  |  |  |  | EC50 (EsaR [2]): 97 µM
CCCC(=O)NC1CCCC1 [RN4] |  |  |  |  |  |  |  |  |  |  | EsaR antagonism, in words (EsaR [1]): None of these compounds antagonized EsaR
O=C(NC1CCCC1)C1CCC1 [RN13] |  |  |  |  |  |  |  |  |  |  | EsaR antagonism, in words (EsaR [1]): None of these compounds antagonized EsaR; EsaR agonism, in words (EsaR [1]): moderate agonist
O=C(COc1ccc(I)cc1)NC1CCCC1 [RN17] |  |  |  |  |  |  |  |  |  |  | EsaR antagonism, in words (EsaR [1]): None of these compounds antagonized EsaR
CC(C)CC(=O)NC1CCCC1 [RN20] |  |  |  |  |  |  |  |  |  |  | EsaR antagonism, in words (EsaR [1]): None of these compounds antagonized EsaR
CCCCCCCCCC(=O)CC(=O)Nc1ccccc1 [V-06–018, reference compound] |  |  |  |  |  |  |  |  |  |  | EsaR antagonism, in words (EsaR [1]): inactive as EsaR antagonists; EsaR antagonism, in words, EsaR-repressed promoter (EsaR [2]; E. coli reporter, competed against OHHL at approx. EC50): inactive as EsaR antagonists
